From the supplement of paper PMC11208160

experiment: recombinant barcode read abundance after kanamycin selection (control-corrected) (log10(CPM+1)); higher = more efficient recombination; sequences stand for … in AGTGCAGAGAAAATCGGCCAGTTTTCTCTGCCTGCAGTCCGCATGCCGT…ATTTATGCAGCGGACTGCCTTTCTCCCAAAGTGATAAACCGGACAGTATCATGGACCGGTTTTCCCGGTAATCCGTATTTGCAAGGTTGGTTTCACT; site = the 11-nt target
How it was run: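 Values are log10(CPM+1) from a pooled E. coli screen of targets paired with IS621 bridge RNA target-binding loops. Recombination efficiency here means counts per million of recombinant-junction barcodes, averaged and control-corrected. Plates were chloramphenicol/ampicillin LB agar for the control and chloramphenicol/ampicillin/kanamycin with 0.1 mM IPTG, two replicates each.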

“CGGTCCCCTTGGGTTCTAACCTGTTGCCACA [CGGTCCCCTTG_LTGcore_CT_RTGcore_TG] (site CGGTCCCCTTG) (LTG core: CT, RTG core: TG)” and “CGGTCCCCTTGGGTTCTAACCTGTTGCCACG [CGGTCCCCTTG_LTGcore_CT_RTGcore_CG] (site CGGTCCCCTTG) (LTG core: CT, RTG core: CG)” are within 0.2 log units of each other in “recombinant barcode read abundance (log10)” value: 0.0539 for the first, 0.0795 for the second.

“CGGTCCCCTTGGGTTCTAACCTGTTGCCAGC [CGGTCCCCTTG_LTGcore_CT_RTGcore_GC] (site CGGTCCCCTTG) (LTG core: CT, RTG core: GC)” and “CGGTCCCCTTGGGTTCTAACCTGTTGCCATA [CGGTCCCCTTG_LTGcore_CT_RTGcore_TA] (site CGGTCCCCTTG) (LTG core: CT, RTG core: TA)” are within 0.2 log units of each other in “recombinant barcode read abundance (log10)” value: 0.178 for the first, 0.222 for the second.

“CGGTCCCCTTGGGTTCTAACCTGTTGCCATC [CGGTCCCCTTG_LTGcore_CT_RTGcore_GA] (site CGGTCCCCTTG) (LTG core: CT, RTG core: GA)” and “CGGTCCCCTTGGGTTCTAACCTGTTGCCATT [CGGTCCCCTTG_LTGcore_CT_RTGcore_AA] (site CGGTCCCCTTG) (LTG core: CT, RTG core: AA)” are within 0.2 log units of each other in “recombinant barcode read abundance (log10)” value: 0.208 for the first, 0.369 for the second.

“GAGCCCAACTGGGTTCTAACCTGTTGCCTGT [GAGCCCACTAG_LTGcore_AC_RTGcore_AC] (site GAGCCCACTAG) (LTG core: AC, RTG core: AC)” and “GAGCCCAATTGGGTTCTAACCTGTTGCCTAT [GAGCCCACTAG_LTGcore_AT_RTGcore_AT] (site GAGCCCACTAG) (LTG core: AT, RTG core: AT)” are within 0.2 log units of each other in “recombinant barcode read abundance (log10)” value: 0.199 for the first, 0.154 for the second.

“GAGCCCACCTGGGTTCTAACCTGTTGCCTGG [GAGCCCACTAG_LTGcore_CC_RTGcore_CC] (site GAGCCCACTAG) (LTG core: CC, RTG core: CC)” and “GAGCCCACGTGGGTTCTAACCTGTTGCCTAG [GAGCCCACTAG_LTGcore_CG_RTGcore_CT] (site GAGCCCACTAG) (LTG core: CG, RTG core: CT)” are within 0.2 log units of each other in “recombinant barcode read abundance (log10)” value: 0.0451 for the first, 0.2 for the second.

“GAGCCCATCTGGGTTCTAACCTGTTGCCTGA [GAGCCCACTAG_LTGcore_TC_RTGcore_TC] (site GAGCCCACTAG) (LTG core: TC, RTG core: TC)” and “GAGGCCTCATGGGTTCTAACCTGTTGCCATG [GAGGCCTCTTG_LTGcore_CA_RTGcore_CA] (site GAGGCCTCTTG) (LTG core: CA, RTG core: CA)” are within 0.2 log units of each other in “recombinant barcode read abundance (log10)” value: 0.0397 for the first, 0.0323 for the second.

“GAGGCCTCCTGGGTTCTAACCTGTTGCCAAG [GAGGCCTCTTG_LTGcore_CC_RTGcore_CT] (site GAGGCCTCTTG) (LTG core: CC, RTG core: CT)” and “GAGGCCTCGTGGGTTCTAACCTGTTGCCACG [GAGGCCTCTTG_LTGcore_CG_RTGcore_CG] (site GAGGCCTCTTG) (LTG core: CG, RTG core: CG)” are within 0.2 log units of each other in “recombinant barcode read abundance (log10)” value: 0.273 for the first, 0.169 for the second.

“GAGGCCTCTTGGGTTCTAACCTGTTGCCAGC [GAGGCCTCTTG_LTGcore_CT_RTGcore_GC] (site GAGGCCTCTTG) (LTG core: CT, RTG core: GC)” and “GAGGCCTGATGGGTTCTAACCTGTTGCCATC [GAGGCCTCTTG_LTGcore_GA_RTGcore_GA] (site GAGGCCTCTTG) (LTG core: GA, RTG core: GA)” are within 0.2 log units of each other in “recombinant barcode read abundance (log10)” value: 0.285 for the first, 0.231 for the second.

“GAGGCCTGCTGGGTTCTAACCTGTTGCCAGC [GAGGCCTCTTG_LTGcore_GC_RTGcore_GC] (site GAGGCCTCTTG) (LTG core: GC, RTG core: GC)” and “GAGGCCTTATGGGTTCTAACCTGTTGCCATA [GAGGCCTCTTG_LTGcore_TA_RTGcore_TA] (site GAGGCCTCTTG) (LTG core: TA, RTG core: TA)” are within 0.2 log units of each other in “recombinant barcode read abundance (log10)” value: 0.275 for the first, 0.172 for the second.

Going from “GAGTCCAAATGGGTTCTAACCTGTTGCGTAG [GAGTCCACTAC_LTGcore_AA_RTGcore_CT] (site GAGTCCACTAC) (LTG core: AA, RTG core: CT)” to “GAGTCCACTTGGGTTCTAACCTGTTGCGTAG [GAGTCCACTAC_LTGcore_CT_RTGcore_CT] (site GAGTCCACTAC) (LTG core: CT, RTG core: CT)”, the “recombinant barcode read abundance (log10)” value rises from 0.0292 to 2.39.

Going from “GAGTCCACTTGGGTTCTAACCTGTTGCGTCC [GAGTCCACTAC_LTGcore_CT_RTGcore_GG] (site GAGTCCACTAC) (LTG core: CT, RTG core: GG)” to “GAGTCCACTTGGGTTCTAACCTGTTGCGTGA [GAGTCCACTAC_LTGcore_CT_RTGcore_TC] (site GAGTCCACTAC) (LTG core: CT, RTG core: TC)”, the “recombinant barcode read abundance (log10)” value falls from 0.482 to 0.116.

Going from “GAGTCCACTTGGGTTCTAACCTGTTGCGTTT [GAGTCCACTAC_LTGcore_CT_RTGcore_AA] (site GAGTCCACTAC) (LTG core: CT, RTG core: AA)” to “GAGTCCTATTGGGTTCTAACCTGTTGCCTAG [GAGTCCTCTAG_LTGcore_AT_RTGcore_CT] (site GAGTCCTCTAG) (LTG core: AT, RTG core: CT)”, the “recombinant barcode read abundance (log10)” value falls from 1.07 to 0.0701.

First: GAGTCCTATTGGGTTCTAACCTGTTGCCTAT [GAGTCCTCTAG_LTGcore_AT_RTGcore_AT] (site GAGTCCTCTAG) (LTG core: AT, RTG core: AT)
Second: GAGTCCTCGTGGGTTCTAACCTGTTGCCTAG [GAGTCCTCTAG_LTGcore_CG_RTGcore_CT] (site GAGTCCTCTAG) (LTG core: CG, RTG core: CT)
The “recombinant barcode read abundance (log10)” value of the first is lower: 0.0431 for the first, 0.274 for the second.

Going from “GAGTCCTCTTGGGTTCTAACCTGTTGCCTAT [GAGTCCTCTAG_LTGcore_CT_RTGcore_AT] (site GAGTCCTCTAG) (LTG core: CT, RTG core: AT)” to “GAGTCCTCTTGGGTTCTAACCTGTTGCCTGC [GAGTCCTCTAG_LTGcore_CT_RTGcore_GC] (site GAGTCCTCTAG) (LTG core: CT, RTG core: GC)”, the “recombinant barcode read abundance (log10)” value falls from 0.495 to 0.293.

First: GAGTCCTCTTGGGTTCTAACCTGTTGCCTTT [GAGTCCTCTAG_LTGcore_CT_RTGcore_AA] (site GAGTCCTCTAG) (LTG core: CT, RTG core: AA)
Second: GCGCGACAATGGGTTCTAACCTGTTGCTTAG [GCGCGACCTAA_LTGcore_AA_RTGcore_CT] (site GCGCGACCTAA) (LTG core: AA, RTG core: CT)
The “recombinant barcode read abundance (log10)” value of the first is higher: 0.398 for the first, 0 for the second.

“GCGCGACACTGGGTTCTAACCTGTTGCTTAG [GCGCGACCTAA_LTGcore_AC_RTGcore_CT] (site GCGCGACCTAA) (LTG core: AC, RTG core: CT)” and “GCGCGACCGTGGGTTCTAACCTGTTGCTTAG [GCGCGACCTAA_LTGcore_CG_RTGcore_CT] (site GCGCGACCTAA) (LTG core: CG, RTG core: CT)” are within 0.2 log units of each other in “recombinant barcode read abundance (log10)” value: 0.131 for the first, 0.217 for the second.

Going from “GCGCGACCGTGGGTTCTAACCTGTTGCTTCG [GCGCGACCTAA_LTGcore_CG_RTGcore_CG] (site GCGCGACCTAA) (LTG core: CG, RTG core: CG)” to “GCGCGACCTTGGGTTCTAACCTGTTGCTTGG [GCGCGACCTAA_LTGcore_CT_RTGcore_CC] (site GCGCGACCTAA) (LTG core: CT, RTG core: CC)”, the “recombinant barcode read abundance (log10)” value falls from 0.282 to 0.

“GCGCGACCTTGGGTTCTAACCTGTTGCTTTA [GCGCGACCTAA_LTGcore_CT_RTGcore_TA] (site GCGCGACCTAA) (LTG core: CT, RTG core: TA)” and “GCGCGACCTTGGGTTCTAACCTGTTGCTTTG [GCGCGACCTAA_LTGcore_CT_RTGcore_CA] (site GCGCGACCTAA) (LTG core: CT, RTG core: CA)” are within 0.2 log units of each other in “recombinant barcode read abundance (log10)” value: 0.265 for the first, 0.102 for the second.

Compared with “GCGCGACGGTGGGTTCTAACCTGTTGCTTCC [GCGCGACCTAA_LTGcore_GG_RTGcore_GG] (site GCGCGACCTAA) (LTG core: GG, RTG core: GG)”, “GCGCGACGTTGGGTTCTAACCTGTTGCTTAG [GCGCGACCTAA_LTGcore_GT_RTGcore_CT] (site GCGCGACCTAA) (LTG core: GT, RTG core: CT)” is lower in “recombinant barcode read abundance (log10)” value: 0.315 for the first, 0.0314 for the second.

“GCGCGACTATGGGTTCTAACCTGTTGCTTTA [GCGCGACCTAA_LTGcore_TA_RTGcore_TA] (site GCGCGACCTAA) (LTG core: TA, RTG core: TA)” and “GCGCGACTCTGGGTTCTAACCTGTTGCTTGA [GCGCGACCTAA_LTGcore_TC_RTGcore_TC] (site GCGCGACCTAA) (LTG core: TC, RTG core: TC)” are within 0.2 log units of each other in “recombinant barcode read abundance (log10)” value: 0.118 for the first, 0.228 for the second.

“GCGGGACAATGGGTTCTAACCTGTTGCCTAG [GCGGGACCTAG_LTGcore_AA_RTGcore_CT] (site GCGGGACCTAG) (LTG core: AA, RTG core: CT)” and “GCGGGACACTGGGTTCTAACCTGTTGCCTAG [GCGGGACCTAG_LTGcore_AC_RTGcore_CT] (site GCGGGACCTAG) (LTG core: AC, RTG core: CT)” are within 0.2 log units of each other in “recombinant barcode read abundance (log10)” value: 0.227 for the first, 0.121 for the second.

First: GCGGGACATTGGGTTCTAACCTGTTGCCTAT [GCGGGACCTAG_LTGcore_AT_RTGcore_AT] (site GCGGGACCTAG) (LTG core: AT, RTG core: AT)
Second: GCGGGACCTTGGGTTCTAACCTGTTGCCTCA [GCGGGACCTAG_LTGcore_CT_RTGcore_TG] (site GCGGGACCTAG) (LTG core: CT, RTG core: TG)
The “recombinant barcode read abundance (log10)” value of the first is lower: 0.11 for the first, 0.682 for the second.

In the case of “GCGGGACCTTGGGTTCTAACCTGTTGCCTGG [GCGGGACCTAG_LTGcore_CT_RTGcore_CC] (site GCGGGACCTAG) (LTG core: CT, RTG core: CC)”, the “recombinant barcode read abundance (log10)” value is reported as 0.0406.
